“Also recorded” adds a separate entry of the source.
Columns and labels:
[1] = test system: women with severe chronic PTSD; assay: Other medications of the Example 1 case patients (history); format: in vivo, human
Method: Case 2. patient two, a person with chronic severe PTSD (DSM-IV) associated with a history of severe childhood physical and sexual abuse, had remained highly symptomatic despite undergoing one and a half years of individual and group CBT and receiving paroxetine up to 30 mg daily, from other practitioners, for more than 4 years. […] They wished to be tapered off paroxetine because they had gained 40 lb, and after becoming obese, they also became hypertensive. Ms. […] Although their paroxetine dosage was tapered to 5 mg every other day, and lamotrigine 100 mg and topiramate 75 mg were administered daily, they remained highly symptomatic.
Case 4. patient one was in psychiatric treatment for over 25 years, including a long course of psychoanalysis and 2 years of CBT. They had been treated with adequate trials of 2 tricyclic antidepressants, 3 SSRIs, venlafaxine, 2 monoamine oxidase inhibitors, 3 anticonvulsants, many typical and atypical antipsychotics, lithium, bupropion, trazodone, and nefazodone.
[…] symptoms persisted in spite of psychotherapy for more than 15 years and numerous trials on medications.

[2] = test system: treatment-resistant patients; assay: Other treatments of the Example 3 patients (history); settings: for response to other treatment: Example 3 patients 2, 3, 5, 6, 7, before 7-keto DHEA
From the text: Patient 2 A married person was anxious all their life, hypertensive, fragile, had 4 years of depression due to stress and received 12 years of psychoanalysis.

[3] = test system: midlife major and minor depression or dysthymia; settings: cited from earlier work
[4] = target: T1, [^3H]dexamethasone-activated glucocorticoid receptor (Homo sapiens, UniProt P04150); settings: brain cells; cited from earlier work
T1 construct: glucocorticoid receptor in brain cells; host or cells: brain cells
T1 sequence (P04150 1-777): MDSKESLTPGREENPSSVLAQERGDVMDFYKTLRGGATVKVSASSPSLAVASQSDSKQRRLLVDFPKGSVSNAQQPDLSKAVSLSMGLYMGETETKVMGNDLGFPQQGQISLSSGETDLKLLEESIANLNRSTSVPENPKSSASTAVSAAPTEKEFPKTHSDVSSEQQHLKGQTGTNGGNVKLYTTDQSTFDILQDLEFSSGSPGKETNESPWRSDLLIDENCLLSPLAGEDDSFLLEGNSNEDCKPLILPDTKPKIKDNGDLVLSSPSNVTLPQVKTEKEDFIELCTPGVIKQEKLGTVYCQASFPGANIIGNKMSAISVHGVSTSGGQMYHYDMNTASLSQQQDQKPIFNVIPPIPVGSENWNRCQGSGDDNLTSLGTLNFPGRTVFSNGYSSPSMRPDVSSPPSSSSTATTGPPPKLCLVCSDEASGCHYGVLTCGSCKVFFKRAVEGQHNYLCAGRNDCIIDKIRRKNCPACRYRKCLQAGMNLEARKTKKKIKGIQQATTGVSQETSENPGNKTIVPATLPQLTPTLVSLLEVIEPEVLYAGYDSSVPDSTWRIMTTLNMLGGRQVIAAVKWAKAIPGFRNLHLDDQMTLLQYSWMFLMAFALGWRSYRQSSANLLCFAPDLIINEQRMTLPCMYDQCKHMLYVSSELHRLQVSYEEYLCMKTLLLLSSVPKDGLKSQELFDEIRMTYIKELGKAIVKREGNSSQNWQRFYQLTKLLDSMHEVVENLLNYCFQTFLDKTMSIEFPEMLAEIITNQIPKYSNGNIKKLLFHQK

[5] = Case 4, lorazepam 1 mg p.r.n., aripiprazole 2.5 mg daily, pemoline 75 mg daily, phentermine 30 mg daily

## CNCCC(Oc1ccc(C(F)(F)F)cc1)c1ccccc1 (centres unmarked) [fluoxetine]
[1]; human, in vivo
  adverse effect of failed trial: agitated and irritable

## C[S+](CC[C@H](N)C(=O)O)C[C@H]1O[C@@H](n2cnc3c(N)ncnc32)[C@H](O)[C@@H]1O (some centres unmarked) [SAMe, S-adenosylmethionine]
[2]
  response to other treatment: partially helped; also recorded: made the Doxepin work better

## CN[C@H]1CC[C@@H](c2ccc(Cl)c(Cl)c2)c2ccccc21 [sertraline]
[1]; Case 5, sertraline for 6 years
  benefit: minimal benefit
[1]; human, in vivo
  adverse effect of failed trial: agitated and irritable
[2]
  response to other treatment: partially improved

## CN1CCN2c3ncccc3Cc3ccccc3C2C1 (centres unmarked) [Remeron]
[2]
  response to other treatment: partially helped

## Fc1ccc([C@@H]2CCNC[C@H]2COc2ccc3c(c2)OCO3)cc1 [paroxetine]
[1]; Case 2, patient's own judgement
  benefit: not helping their chronic severe anxiety and irritability

## Nc1nnc(-c2cccc(Cl)c2Cl)c(N)n1 [lamotrigine]
[2]
  response to other treatment: partially improved

## C[C@]12CC[C@H](O)CC1=CC[C@@H]1[C@@H]2CC[C@]2(C)C(=O)CC[C@@H]12 [DHEA, Dehydroepiandrosterone]
[3]; case reports
  induced mania: induced mania has been reported
[3]; one open series and 3 placebo-controlled, double-blind, randomized trials, midlife major and minor depression or dysthymia
  effectiveness in depression: supported the effectiveness

## C[C@H](N)Cc1ccccc1 [dextroamphetamine]
[1]; Case 4
  adverse effect: made their anxiety worse

## O=C1Nc2ccc(Cl)cc2C(c2ccccc2Cl)=NC1O (centres unmarked) [lorazepam]
[1]; [5]
  benefit: some relief from anxiety, depression, and agitation

## C[C@]12CC[C@H](O)CC1=C[C@H](O)[C@@H]1[C@@H]2CC[C@]2(C)C(=O)CC[C@@H]12 [7 beta-hydroxy DHEA]
[4]
  preventing the nuclear uptake of [^3H]dexamethasone-activated glucocorticoid receptor: efficient

## O=C1CCc2ccc(OCCCCN3CCN(c4cccc(Cl)c4Cl)CC3)cc2N1 [aripiprazole]
[1]; [5]
  benefit: some relief from anxiety, depression, and agitation
[1]; human, in vivo
  weight gain: 30 lb
[2]
  response to other treatment: partially responded

## C[C@]12CC[C@H](O)CC1=C[C@@H](O)[C@@H]1[C@@H]2CC[C@]2(C)C(=O)CC[C@@H]12 [7 alpha-hydroxy DHEA]
[4]
  preventing the nuclear uptake of [^3H]dexamethasone-activated glucocorticoid receptor: efficient

## COC(=O)C(c1ccccc1)C1CCCCN1 (centres unmarked) [Methylphenidate]
[1]; Case 4
  adverse effect: made their anxiety worse

## CN(C)CCC=C1c2ccccc2COc2ccccc21 [Doxepin]
[2]
  response to other treatment: partially responded
[2]; human, in vivo
  tolerability of other treatment: intolerant of the side effects

## NC1=NC(=O)C(c2ccccc2)O1 (centres unmarked) [Pemoline]
[1]; [5]
  benefit: enough energy to function

## CC(C)(N)Cc1ccccc1 [phentermine]
[1]; [5]
  benefit: enough energy to function

## COc1ccc(C(CN(C)C)C2(O)CCCCC2)cc1 (centres unmarked) [venlafaxine]
[1]; Case 5, sertraline for 6 years
  benefit: slightly helpful
[1]; Case 5, venlafaxine at 300 mg daily
  adverse effect: overly activated
[2]
  response to other treatment: partially responded
[2]; Example 3 patients 6 and 7
  tolerability of other treatment: did not like the side effects
